# Experimental data: ChEMBL document CHEMBL5247588, “Design and characterization of PROTAC degraders specific to protein N-terminal methyltransferase 1” (Eur J Med Chem, 2022)
# pIC50: −log10 of the molar value. The source made the active and inactive calls. The rule behind the calls is not given here.
# What was measured:
# [1] = target: T1, von Hippel-Lindau disease tumor suppressor/N-terminal Xaa-Pro-Lys N-methyltransferase 1 (Homo sapiens) (UniProt P40337+Q9BV86); test: PROTAC activity at VHL/NTMT1 in human HT-29 cells assessed as reduction in NTMT1 protein level incubated for 24 hrs by Western blot analysis; format: cell-based
# [2] = target: T1, von Hippel-Lindau disease tumor suppressor/N-terminal Xaa-Pro-Lys N-methyltransferase 1 (Homo sapiens); test: PROTAC activity at VHL/NTMT1 in human HCT-116 cells assessed as reduction in NTMT1 protein level incubated for 24 hrs by Western blot analysis; format: cell-based
# [3] = target: T2, N-terminal Xaa-Pro-Lys N-methyltransferase 1 (Homo sapiens) (UniProt Q9BV86); test: Potency index, ratio of DC541 IC50 to test compound IC50 for inhibition of NTMT1 (unknown origin) using SPKRIAKRRS(CONH2) peptide as substrate assessed as SAH production incubated for 10 mins in the presence of SAM by HPLC analysis
# T2 sequence (whole entry): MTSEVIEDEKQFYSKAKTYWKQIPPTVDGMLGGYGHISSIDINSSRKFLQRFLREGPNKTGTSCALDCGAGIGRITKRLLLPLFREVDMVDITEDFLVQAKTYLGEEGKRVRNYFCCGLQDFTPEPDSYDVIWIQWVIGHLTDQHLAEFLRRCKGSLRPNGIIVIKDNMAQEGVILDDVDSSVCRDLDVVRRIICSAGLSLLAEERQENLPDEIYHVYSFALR
# [4] = target: T3, N-terminal Xaa-Pro-Lys N-methyltransferase 1 (Homo sapiens, UniProt Q9BV86); test: Inhibition of NTMT1 (unknown origin) using SPKRIAKRRS(CONH2) peptide as substrate assessed as SAH production incubated for 10 mins in the presence of SAM by HPLC analysis
# T3 sequence (Q9BV86 whole entry): T2 sequence (whole entry)
# HCT-116 [5] = test: Antiproliferative activity against human HCT-116 cells assessed as inhibition of cell proliferation at 1 to 64 uM incubated for 72 hrs by fluorescence based microplate reader analysis relative to control; format: functional; conditions: dose 1-64 µM
# HT-29 = test: Cytotoxicity against human HT-29 cells assessed as reduction in cell viability at 1 to 64 uM measured after 24 hrs by WST-8 assay; format: toxicity, cell-based; conditions: ht-29, 24 h, dose 1-64 µM
# HCT-116 [6] = test: Antiproliferative activity against human HCT-116 cells cultured in PG-S assessed as decrease in cell number at 64 uM measured after 3 days by AO/PI staining based cell counter analysis relative to control; format: functional; parameters: scale not given: the % may be the effect or the level left; conditions: time 3 day
# HCT-116 [7] = test: Antiproliferative activity against human HCT-116 cells assessed as reduction in cell proliferation incubated for 72 hrs by fluorescence based microplate reader analysis; format: functional; conditions: dose 1-64 µM
# HCT-116 [8] = test: Antiproliferative activity against human HCT-116 cells assessed as reduction in tumor spheroid growth at 64 uM measured after 12 days by imaging analysis relative to control; format: functional; parameters: scale not given: the % may be the effect or the level left; conditions: time 12 day
# [9] = Upregulation of CALR in human HCT-116 cells assessed as fold change at 25 uM incubated for 24 hrs by Western blot analysis relative to control; format: functional
# [10] = target: T1, von Hippel-Lindau disease tumor suppressor/N-terminal Xaa-Pro-Lys N-methyltransferase 1 (Homo sapiens); test: PROTAC activity at VHL/NTMT1 in human HT-29 cells assessed as reduction in NTMT1 protein level at 50 uM incubated for 24 hrs by Western blot analysis; format: cell-based
# [11] = target: T1, von Hippel-Lindau disease tumor suppressor/N-terminal Xaa-Pro-Lys N-methyltransferase 1 (Homo sapiens); test: PROTAC activity at VHL/NTMT1 in human HCT-116 cells assessed as reduction in NTMT1 protein level at 50 uM incubated for 24 hrs by Western blot analysis; format: cell-based
# HCT-116 [12] = test: Antiproliferative activity against NTMT1 knockout human HCT-116 cells at 1 to 64 uM incubated for 72 hrs by fluorescence based microplate reader analysis; format: functional, cell-based; conditions: dose 1-64 µM
# HCT-116 [13] = test: Cytotoxicity against human HCT-116 cells assessed as reduction in cell viability at 1 to 64 uM incubated for 24 hrs by WST-8 assay; format: toxicity, cell-based; conditions: hct-116, 24 h, dose 1-64 µM
# [14] = target: T1, von Hippel-Lindau disease tumor suppressor/N-terminal Xaa-Pro-Lys N-methyltransferase 1 (Homo sapiens); test: PROTAC activity at VHL/NTMT1 in human HCT-116 cells assessed as reduction in NTMT1 protein level at 50 uM preincubated with MG132 for 2 hrs followed by compound addition and measured after 24 hrs by Western blot analysis; format: cell-based
# HCT-116 [15] = test: Induction of cell cycle arrest in human HCT-116 cells assessed as decrease in S phase cells at 64 uM incubated for 3 days by PI staining based flow cytometric analysis; format: functional; conditions: time 3.0 day
# [16] = target: T1, von Hippel-Lindau disease tumor suppressor/N-terminal Xaa-Pro-Lys N-methyltransferase 1 (Homo sapiens); test: PROTAC activity at VHL/NTMT1 in human HCT-116 cells co-expressing eGFP fusion protein assessed as reduction in NTMT1 protein level by measuring reduction in eGFP fluorescence at 100 uM incubated for 24 hrs by fluorescence microscopic analysis; format: cell-based
# [17] = target: T1, von Hippel-Lindau disease tumor suppressor/N-terminal Xaa-Pro-Lys N-methyltransferase 1 (Homo sapiens); test: PROTAC activity at VHL/NTMT1 in human HT-29 cells assessed as reduction in NTMT1 protein level at 50 uM preincubated with compound for 24 hrs followed by compound washout and measured after 20 hrs by Western blot analysis; format: cell-based
# HCT-116 [18] = test: Induction of cell cycle arrest in human HCT-116 cells assessed as accumulation of cells at G0/G1 phase incubated for 3 days by PI staining based flow cytometric analysis; format: functional; conditions: time 3.0 day
# [19] = target: T1, von Hippel-Lindau disease tumor suppressor/N-terminal Xaa-Pro-Lys N-methyltransferase 1 (Homo sapiens); test: PROTAC activity at VHL/NTMT1 in human HCT-116 cells assessed as reduction in NTMT1 protein level at 50 uM preincubated with MLN4924 for 2 hrs followed by compound addition and measured after 24 hrs by Western blot analysis; format: cell-based
# HCT-116 [20] = test: Upregulation of CALR in human HCT-116 cells at 25 uM incubated for 24 hrs by LC-MS based proteomic analysis; format: functional, cell-based
# [21] = target: T1, von Hippel-Lindau disease tumor suppressor/N-terminal Xaa-Pro-Lys N-methyltransferase 1 (Homo sapiens); test: PROTAC activity at VHL/NTMT1 in human HCT-116 cells assessed as reduction in NTMT1 protein level by measuring maximal efficacy at 50 uM measured at 3 hrs by Western blot analysis relative to control; format: cell-based
# HCT-116 [22] = test: Downregulation of NTMT1 in human HCT-116 cells at 25 uM incubated for 24 hrs by Western-blot analysis; format: functional, cell-based
# [23] = target: T1, von Hippel-Lindau disease tumor suppressor/N-terminal Xaa-Pro-Lys N-methyltransferase 1 (Homo sapiens); test: PROTAC activity at VHL/NTMT1 in human HCT-116 cells assessed as reduction in NTMT1 protein level at 50 uM preincubated with compound for 24 hrs followed by compound washout and measured after 20 hrs by Western blot analysis; format: cell-based
# HCT-116 [24] = test: Induction of cell cycle arrest in human HCT-116 cells assessed as G0/G1 phase cells at 64 uM incubated for 3 days by PI staining based flow cytometric analysis (reference value: 65%); format: functional; conditions: time 3 day
# HCT-116 [25] = test: Antiproliferative activity against human HCT-116 cells cultured in PG-S assessed as decrease in cell number measured after 3 days by AO/PI staining based cell counter analysis; format: functional; conditions: time 3.0 day
# HCT-116 [26] = test: Downregulation of NTMT1 in human HCT-116 cells at 25 uM incubated for 24 hrs by LC-MS based proteomic analysis; format: functional, cell-based
# [27] = target: T1, von Hippel-Lindau disease tumor suppressor/N-terminal Xaa-Pro-Lys N-methyltransferase 1 (Homo sapiens); test: PROTAC activity at VHL/NTMT1 in human HT-29 cells assessed as reduction in NTMT1 protein level by measuring maximal efficacy at 50 uM measured after 24 hrs by Western blot analysis relative to control; format: cell-based
# [28] = target: T4, von Hippel-Lindau disease tumor suppressor/N-terminal Xaa-Pro-Lys N-methyltransferase 2 (Homo sapiens) (UniProt P40337+Q5VVY1); test: PROTAC activity at VHL/NTMT2 in human HT-29 cells assessed as reduction in NTMT2 protein level at 5 to 50 uM incubated for 24 hrs by Western blot analysis; format: cell-based; conditions: dose 5-50 µM
# [29] = target: T1, von Hippel-Lindau disease tumor suppressor/N-terminal Xaa-Pro-Lys N-methyltransferase 1 (Homo sapiens); test: PROTAC activity at VHL/NTMT1 in human HT-29 cells assessed as reduction in NTMT1 protein level by measuring maximal efficacy at 0.1 to 50 uM incubated for 24 hrs by Western blot analysis relative to control; format: cell-based; conditions: dose 0.1-50 µM
# HCT-116 [30] = test: Antiproliferative activity against human HCT-116 cells cultured in PG-S assessed as viable cells upto 64 uM measured after 3 days by AO/PI staining based cell counter analysis relative to control; format: functional; conditions: time 3 day, up to 64 µM
# [31] = target: T4, von Hippel-Lindau disease tumor suppressor/N-terminal Xaa-Pro-Lys N-methyltransferase 2 (Homo sapiens); test: PROTAC activity at VHL/NTMT2 in human HCT-116 cells assessed as reduction in NTMT2 protein level at 5 to 50 uM incubated for 24 hrs by Western blot analysis; format: cell-based; conditions: dose 5-50 µM
# [32] = target: T1, von Hippel-Lindau disease tumor suppressor/N-terminal Xaa-Pro-Lys N-methyltransferase 1 (Homo sapiens); test: PROTAC activity at VHL/NTMT1 in human HCT-116 cells assessed as reduction in NTMT1 protein level by measuring maximal efficacy at 0.1 to 50 uM incubated for 24 hrs by Western blot analysis relative to control; format: cell-based; conditions: dose 0.1-50 µM
# [33] = target: T1, von Hippel-Lindau disease tumor suppressor/N-terminal Xaa-Pro-Lys N-methyltransferase 1 (Homo sapiens); test: PROTAC activity at VHL/NTMT1 in human HT-29 cells assessed as reduction in NTMT1 protein level at 50 uM measured upto 6 hrs by Western blot analysis; format: cell-based
# T1 sequence (P40337 whole entry, looked up, one chain of several): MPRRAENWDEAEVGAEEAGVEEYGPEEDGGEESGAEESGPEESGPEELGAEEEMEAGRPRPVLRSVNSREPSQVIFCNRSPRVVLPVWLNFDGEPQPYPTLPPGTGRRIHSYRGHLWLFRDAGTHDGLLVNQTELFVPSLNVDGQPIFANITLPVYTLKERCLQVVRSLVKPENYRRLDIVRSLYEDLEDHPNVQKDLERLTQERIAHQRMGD
# T4 sequence (P40337 whole entry, looked up): as the sequence (P40337 whole entry, looked up, one chain of several) above
# T4 sequence (Q5VVY1 whole entry, looked up): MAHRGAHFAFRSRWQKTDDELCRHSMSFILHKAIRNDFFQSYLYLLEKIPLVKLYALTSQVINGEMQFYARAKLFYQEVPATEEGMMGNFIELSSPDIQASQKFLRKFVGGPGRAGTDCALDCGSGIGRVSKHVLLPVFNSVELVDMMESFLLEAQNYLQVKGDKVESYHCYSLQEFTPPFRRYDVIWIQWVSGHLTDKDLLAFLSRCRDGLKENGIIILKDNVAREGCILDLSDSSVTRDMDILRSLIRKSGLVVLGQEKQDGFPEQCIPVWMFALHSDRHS
SMILES,Activity [1],Activity [2],Ratio IC50 [3],pIC50 [4],inhibition (INH) (HCT-116 [5]) [%],Activity (HT-29),Activity (HCT-116 [6]) [%],Activity (HCT-116 [7]),Activity (HCT-116 [8]) [%],fold change (FC) [9],Activity [11],Activity (HCT-116 [12]),Activity (HCT-116 [13]),other results
Cc1ncsc1-c1ccc(CNC(=O)[C@@H]2C[C@@H](O)CN2C(=O)[C@H](C(C)C)N2Cc3ccccc3C2=O)c(OCCOCCOCCOCCNC(=O)c2ccccc2NC(=O)[C@H](CCCCN)NC(=O)[C@@H]2CCCN2C(=O)Cc2cccc3ccccc23)c1,Dose-Dependent Effect,Dose-Dependent Effect,2,5.70,,,,,,,,,,
Cc1ncsc1-c1ccc(CNC(=O)[C@@H]2C[C@H](O)CN2C(=O)[C@H](C(C)C)N2Cc3ccccc3C2=O)c(OCCNC(=O)c2ccccc2NC(=O)[C@H](CCCCN)NC(=O)[C@@H]2CCCN2C(=O)Cc2cccc3ccccc23)c1,,,2,5.62,22,Non-Toxic,78,Active,32,1.1,inactive,inactive,Non-Toxic,Activity [10]: inactive
Cc1ncsc1-c1ccc(CNC(=O)[C@@H]2C[C@@H](O)CN2C(=O)[C@H](C(C)C)N2Cc3ccccc3C2=O)c(OCCOCCNC(=O)c2ccccc2NC(=O)[C@H](CCCCN)NC(=O)[C@@H]2CCCN2C(=O)Cc2cccc3ccccc23)c1,Dose-Dependent Effect,Dose-Dependent Effect,2,5.70,,,,,,,,,,
Cc1ncsc1-c1ccc(CNC(=O)[C@@H]2C[C@@H](O)CN2C(=O)[C@H](C(C)C)N2Cc3ccccc3C2=O)c(OCCNC(=O)c2ccccc2NC(=O)[C@H](CCCCN)NC(=O)[C@@H]2CCCN2C(=O)Cc2cccc3ccccc23)c1,Dose-Dependent Effect,Dose-Dependent Effect,2,5.75,47,Non-Toxic,68,Active,62,1.5,Active,inactive,Non-Toxic,Activity [14]: inactive; Activity (HCT-116 [15]): Active; Activity [16]: Active; Activity [17]: inactive; Activity (HCT-116 [18]): Dose-Dependent Effect; Activity [19]: inactive; Activity (HCT-116 [20]): Active; Emax [21]: > 60%; Activity (HCT-116 [22]): Active; Activity [23]: inactive; Activity (HCT-116 [24]): 71%; Activity (HCT-116 [25]): Dose-Dependent Effect; Activity (HCT-116 [26]): Active; Emax [27]: > 90%; Activity [28]: inactive; Emax [29]: > 90%; Activity (HCT-116 [30]): >92%; Activity [31]: inactive; Emax [32]: > 90%; Activity [33]: inactive
NCCCC[C@H](NC(=O)[C@@H]1CCCN1C(=O)Cc1cccc2ccccc12)C(=O)Nc1ccccc1C(=O)O,,,,5.04,,,,,,,,,,
NCCCC[C@H](NC(=O)[C@@H]1CCCN1C(=O)Cc1cccc2ccccc12)C(=O)Nc1ccccc1C(N)=O,,,,5.36,,,,,,,,,,
